The numbers were not newly measured in patent US20080293820A1, “METHODS FOR IMPROVING PHYSICAL FUNCTION IN FIBROMYALGIA” (Cypress Bioscience, Inc., priority 2007, published 2008), which cites them from elsewhere.

The data set concerns patients with FMS. The following applies: open-label; cited from earlier work.

Take `COc1ccc(C(CN(C)C)C2(O)CCCCC2)cc1` (centres unmarked) [venlafaxine]: the “completing patients with a positive response (50% or greater improvement in two different measurements of overall pain)” value is reported as “Six of 11” and the “insomnia requiring adjunctive medical therapy, completing patients” value is listed as 3 of 11.
